Test results as given in ChEMBL document CHEMBL1221222, “Analysis of the eukaryotic prenylome by isoprenoid affinity tagging” (Nat Chem Biol, 2009).
The source made the active and inactive calls. No cut-off for these calls is given here.

Experiments:
[1] = Binding affinity to GGTase-1 by NBD fluorescence assay
[2] = Binding affinity to RabGGTase by NBD fluorescence assay
[3] = Binding affinity to RabGGTase assessed as prenylation of Rab7 by SDS PAGE
[4] = Binding affinity to RabGGTase assessed as prenylation of Rab27 by SDS PAGE
[5] = Binding affinity to FTase assessed as prenylation of Ki-Ras by SDS PAGE
[6] = Binding affinity to GGTase-1 assessed as prenylation of RhoA by SDS PAGE
[7] = Binding affinity to FTase by X-ray crystallography
[8] = system: Protein farnesyltransferase subunit beta (Homo sapiens), P49356 [W102T,Y154T]; experiment: Binding affinity to FTase W102T/Y154T mutant assessed as prenylation of Ki-Ras by Western blot analysis
[9] = system: Protein farnesyltransferase subunit beta (Homo sapiens), P49356 [W102T,Y154T]; experiment: Binding affinity to FTase W102T/Y154T mutant assessed as prenylation of CFP-CAAX by Western blot analysis
[10] = system: Protein farnesyltransferase subunit beta (Homo sapiens), P49356 [W102T,Y154T]; experiment: Binding affinity to FTase W102T/Y154T mutant assessed as prenylation of Ki-Ras by ESI-MS analysis
[11] = system: Protein farnesyltransferase subunit beta (Homo sapiens), P49356 [W102T,Y154T]; experiment: Binding affinity to FTase W102T/Y154T mutant assessed as prenylation of CFP-CAAX by ESI-MS analysis
[12] = system: Protein farnesyltransferase subunit beta (Homo sapiens), P49356 [W102T]; experiment: Binding affinity to FTase W102T mutant assessed as prenylation of Ki-Ras by Western blot analysis
[13] = system: Protein farnesyltransferase subunit beta (Homo sapiens), P49356 [W102T]; experiment: Binding affinity to FTase W102T mutant assessed as prenylation of CFP-CAAX by Western blot analysis
[14] = system: Protein farnesyltransferase subunit beta (Homo sapiens), P49356 [W102T]; experiment: Binding affinity to FTase W102T mutant assessed as prenylation of Ki-Ras by ESI-MS analysis
[15] = system: Protein farnesyltransferase subunit beta (Homo sapiens), P49356 [W102T]; experiment: Binding affinity to FTase W102T mutant assessed as prenylation of CFP-CAAX by ESI-MS analysis
[16] = system: Protein farnesyltransferase subunit beta (Homo sapiens), P49356 [Y154T]; experiment: Binding affinity to FTase Y154T mutant assessed as prenylation of Ki-Ras by Western blot analysis
[17] = system: Protein farnesyltransferase subunit beta (Homo sapiens), P49356 [Y154T]; experiment: Binding affinity to FTase Y154T mutant assessed as prenylation of CFP-CAAX by Western blot analysis
[18] = system: Protein farnesyltransferase subunit beta (Homo sapiens), P49356 [Y154T]; experiment: Binding affinity to FTase Y154T mutant assessed as prenylation of Ki-Ras by ESI-MS analysis
[19] = system: Protein farnesyltransferase subunit beta (Homo sapiens), P49356 [Y154T]; experiment: Binding affinity to FTase Y154T mutant assessed as prenylation of CFP-CAAX by ESI-MS analysis
[20] = system: Protein farnesyltransferase subunit beta (Homo sapiens), P49356 [W102T,Y365F]; experiment: Binding affinity to FTase W102T/Y365F mutant assessed as prenylation of Ki-Ras by Western blot analysis
[21] = system: Protein farnesyltransferase subunit beta (Homo sapiens), P49356 [W102T,Y365F]; experiment: Binding affinity to FTase W102T/Y365F mutant assessed as prenylation of CFP-CAAX by Western blot analysis
[22] = system: Protein farnesyltransferase subunit beta (Homo sapiens), P49356 [W102T,Y365F]; experiment: Binding affinity to FTase W102T/Y365F mutant assessed as prenylation of Ki-Ras by ESI-MS analysis
[23] = system: Protein farnesyltransferase subunit beta (Homo sapiens), P49356 [W102T,Y365F]; experiment: Binding affinity to FTase W102T/Y365F mutant assessed as prenylation of CFP-CAAX by ESI-MS analysis
[24] = system: Geranylgeranyl transferase type-1 subunit beta (Homo sapiens), P53609 [Y126T]; experiment: Binding affinity to GGTase-1 Y126T mutant assessed as prenylation of RhoA GTPase by Western blot method
[25] = Binding affinity to GGTase-1 F53Y/Y126T mutant assessed as prenylation of RhoA GTPase by Western blot method
[26] = Binding affinity to GGTase-1 F53Y/Y126T mutant assessed as prenylation of dansyl-labeled GCVLS by fluorescence based assay
[27] = Binding affinity to GGTase-1 F53Y/Y126T mutant assessed as prenylation of dansyl-labeled GCVLL by fluorescence based assay
[28] = system: COS-7; experiment: Binding affinity to wild type FTase in african green monkey COS7 lysate assessed as prenylation of CFP-CAAX by Western blot method
[29] = system: Protein farnesyltransferase subunit beta (Homo sapiens), P49356 [W102T,Y154T]; experiment: Binding affinity to FTase W102T/Y154T mutant in african green monkey COS7 lysate assessed as prenylation of CFP-CAAX by Western blot method; details: COS-7
[30] = system: Protein farnesyltransferase subunit beta (Homo sapiens), P49356 [W102T,Y154T,Y205T]; experiment: Binding affinity to FTase W102T/Y154T/Y205T mutant in african green monkey COS7 lysate assessed as prenylation of CFP-CAAX by Western blot method; details: COS-7
[31] = system: COS-7; experiment: Binding affinity to GGTase-1 F53Y/Y126T mutant in african green monkey COS7 lysate assessed as prenylation of RhoA by Western blot method
[32] = system: Geranylgeranyl transferase type-1 subunit beta (Homo sapiens), P53609 [F52Y,F53Y,Y126T]; experiment: Binding affinity to GGTase-1 F52Y/F53Y/Y126T mutant in african green monkey COS7 lysate assessed as prenylation of RhoA by Western blot method; details: COS-7
[33] = system: Protein farnesyltransferase subunit beta (Homo sapiens), P49356 [W102T,Y154T,Y205T]; experiment: Binding affinity at FTase W102T/Y154T/Y205T mutant in african green monkey COS7 lysate assessed as protein prenylation by two-dimensional SDS-PAGE method; details: COS-7
[34] = system: COS-7; experiment: Binding affinity to GGTase-1 F53Y/Y126T mutant in african green monkey COS7 lysate assessed as protein prenylation by two-dimensional SDS-PAGE method
[35] = system: COS-7; experiment: Binding affinity to RabGGTase in african green monkey COS7 lysate assessed as prenylation of Rab by two-dimensional SDS-PAGE method
[36] = system: Geranylgeranyl transferase type-1 subunit beta (Homo sapiens), P53609 [F52Y,Y126T]; experiment: Binding affinity to GGTase-1 F52Y/Y126T mutant assessed as prenylation of RhoA GTPase by Western blot method
Chain of Geranylgeranyl transferase type-1 subunit beta (Homo sapiens), P53609 [F52Y,Y126T] (P53609 whole entry F52Y/Y126T): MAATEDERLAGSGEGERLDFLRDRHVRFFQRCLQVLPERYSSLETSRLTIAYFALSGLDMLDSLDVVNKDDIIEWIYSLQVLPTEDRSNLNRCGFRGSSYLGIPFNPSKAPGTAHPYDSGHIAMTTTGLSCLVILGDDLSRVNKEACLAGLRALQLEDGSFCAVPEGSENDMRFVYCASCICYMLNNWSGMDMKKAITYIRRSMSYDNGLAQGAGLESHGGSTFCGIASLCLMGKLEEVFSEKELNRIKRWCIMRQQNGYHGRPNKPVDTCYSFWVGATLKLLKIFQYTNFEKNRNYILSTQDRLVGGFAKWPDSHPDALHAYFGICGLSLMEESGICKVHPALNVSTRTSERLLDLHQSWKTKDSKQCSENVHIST

Chain of Protein farnesyltransferase subunit beta (Homo sapiens), P49356 [W102T,Y365F] (P49356 whole entry W102T/Y365F): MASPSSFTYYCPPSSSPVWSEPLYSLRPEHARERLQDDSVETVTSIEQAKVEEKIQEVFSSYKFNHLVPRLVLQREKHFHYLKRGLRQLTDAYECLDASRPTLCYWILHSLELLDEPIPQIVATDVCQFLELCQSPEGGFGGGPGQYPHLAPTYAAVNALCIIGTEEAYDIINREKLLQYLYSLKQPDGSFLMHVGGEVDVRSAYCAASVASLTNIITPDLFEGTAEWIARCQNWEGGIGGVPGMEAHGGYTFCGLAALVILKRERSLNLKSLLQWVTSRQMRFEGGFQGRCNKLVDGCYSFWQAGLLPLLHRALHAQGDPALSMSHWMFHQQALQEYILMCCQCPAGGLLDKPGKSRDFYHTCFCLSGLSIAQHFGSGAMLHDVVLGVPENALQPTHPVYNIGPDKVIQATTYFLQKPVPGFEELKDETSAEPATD
Chain of Protein farnesyltransferase subunit beta (Homo sapiens), P49356 [W102T] (P49356 whole entry W102T): as the sequence (P49356 whole entry W102T/Y365F) above, with F365Y counted along it
Chain of Protein farnesyltransferase subunit beta (Homo sapiens), P49356 [W102T,Y154T] (P49356 whole entry W102T/Y154T): as the sequence (P49356 whole entry W102T/Y365F) above, with Y154T, F365Y counted along it
Chain of Protein farnesyltransferase subunit beta (Homo sapiens), P49356 [Y154T] (P49356 whole entry Y154T): as the sequence (P49356 whole entry W102T/Y365F) above, with T102W, Y154T, F365Y counted along it
Chain of Protein farnesyltransferase subunit beta (Homo sapiens), P49356 [W102T,Y154T,Y205T] (P49356 whole entry W102T/Y154T/Y205T): as the sequence (P49356 whole entry W102T/Y365F) above, with Y154T, Y205T, F365Y counted along it
Chain of Geranylgeranyl transferase type-1 subunit beta (Homo sapiens), P53609 [F52Y,F53Y,Y126T] (P53609 whole entry F52Y/F53Y/Y126T): as the sequence (P53609 whole entry F52Y/Y126T) above, with F53Y counted along it
Chain of Geranylgeranyl transferase type-1 subunit beta (Homo sapiens), P53609 [Y126T] (P53609 whole entry Y126T): as the sequence (P53609 whole entry F52Y/Y126T) above, with Y52F counted along it

Kd [1]: 0.045 µM | Kd [2]: 0.0022 µM | Activity [3]: Active | Activity [4]: Active | Activity [5]: inactive | Activity [6]: inactive | Activity [7]: Active | Activity [8]: Active | Activity [9]: Active | Activity [10]: Active | Activity [11]: Active | Activity [12]: inactive | Activity [13]: inactive | Activity [14]: inactive | Activity [15]: inactive | Activity [16]: inactive | Activity [17]: inactive | Activity [18]: inactive | Activity [19]: inactive | Activity [20]: inactive | Activity [21]: inactive | Activity [22]: inactive | Activity [23]: inactive | Activity [24]: Active | Activity [25]: Active | Activity [26]: inactive | Activity [27]: inactive | Activity [29]: Active | Activity [30]: Active | Activity [32]: Active | Activity [33]: Active | Activity [34]: Active | Activity [35]: Active | Activity [36]: inactive
Compound: C/C(=C\COP(=O)(O)OP(=O)(O)O)CC/C=C(\C)CNC(=O)CCCC[C@@H]1SC[C@@H]2NC(=O)N[C@@H]21 [biotin-geranylpyrophosphate]
Activity [28]: Active | Activity [31]: Active
